Data set [1] in a line: Colorimetric assay using ALP on DOPA-Tet coated microcentrifuge tubes. Type of data set: biochemical. The following applies: tubes coated with 10 mM DOPA-Tet, treated with enzyme and washed; 1 mg/mL p-NPP, 1 hour, room temperature. The protocol: For the colorimetric assay using ALP, TBS was chosen as the buffer for washing and testing, because the high concentration of phosphate in PBS could affect the phosphatase activity of ALP. TCO-conjugated ALP (ALP-TCO) was prepared as described elsewhere herein. 0.2 mL microcentrifuge tubes (Bio-Rad Laboratories) were coated with 10 mM DOPA-Tet. The tubes were washed thoroughly with TBS 7.5 and sonicated to remove any loose aggregates. The tubes were grafted with either 0.2 mM ALP-TCO or 0.2 mM ALP, both in TBS 7.5. 50 μL of 1 mg/mL p-NPP in TBS 8.5 was added to each tube and incubated at room temperature for 1 hour. Absorbance at 405 nm was measured on a spectrophotometer (NanoDrop One). Three replicates for each grafted molecule, ALP-TCO or ALP, were prepared and measured.

Data set [2] can be described thus: Colorimetric assay using GOx/HRP on DOPA-Tet coated microcentrifuge tubes. Type of data set: biochemical. The following applies: tubes coated with 10 mM DOPA-Tet, treated with enzymes and washed; 1 mM D-glucose and 1 mM ABTS, 1 hour. The protocol: TCO-conjugated GOx (GOx-TCO) and HRP (HRP-TCO) were prepared as described above. 0.2 mL microcentrifuge tubes were coated with 10 mM DOPA-Tet. The tubes were washed with PBS and sonicated to help remove any loose aggregates. The tubes were grafted with either 0.2 mM GOx-TCO and 0.2 mM HRP-TCO, or 0.2 mM GOx and 0.2 mM HRP. […] Absorbance at 405 nm was measured on a spectrophotometer (NanoDrop One). Three replicates of each set of enzymes, TCO-conjugated or native, were prepared and measured.

Data set [3] can be described thus: Coating stability at various pH. The following applies: coated glass vials, 5 days at 37° C. Type of data set: physicochemical. The procedure: Six 4 mL glass vials (VWR International) were coated with 10 mM DOPA-Tet and incubated for 5 days at 37° C. in 1 mL of either 50 mM MES pH 4.5 (Millipore-Sigma), 100 mM IVIES pH 6.0, PBS, TBS 8.5, 100 mM NaHCO3 pH 9.5 (Millipore-Sigma) or 10% DMSO (Millipore-Sigma) in PBS. After incubation, samples were rinsed with Milli-Q water, dried, and imaged.

Data set [4] is described as follows: Coating stability in human serum, ALP activity on p-NPP afterwards. It is filed as biochemical. The note with it: DOPA-Tet coated glass vial, 5 days at 37° C. in human serum, then 1 mg/mL p-NPP 1 hour. The protocol:
Two additional 4 mL glass vials were prepared and incubated in human serum. Both samples were coated with 10 mM DOPA-Tet, and one was grafted with 0.2 mM ALP-TCO. Both samples were incubated in 1 mL of human serum from clotted whole blood (Millipore-Sigma) for 5 days at 37° C. After incubation, both samples were washed with PBS and 1 mL of 1 mg/mL p-NPP was added. After incubation for 1 hour at room temperature, both samples were imaged and their absorbance at 405 nm was measured on a spectrophotometer (NanoDrop One).

Data set [5] concerns S. aureus. Kind of data set: Planktonic bacterial growth inhibition at the surface (PrestoBlue). Type of data set: cell-based. The note with it: coated 96-well plate, incubated overnight, resazurin readout. The protocol:
The wells of a non-treated clear 96 well culture plate were either left uncoated or coated with 10 mM DOPA-Tet and then incubated with either vancomycin-TCO, vancomycin, or PBS. […] 100 μL of culture was added to the wells and the plate was covered and incubated at 37° C. for 18 hours, after which 10 μL of PrestoBlue™ was added to each well. After 1 hour incubation, the media was transferred to clean wells and absorbance at 570 nm was recorded using a plate reader.
Background: Alamar Blue is a resazurin reagent that responds to reducing activity.

Data set [6] concerns S. aureus biofilm. Kind of data set: Biofilm crystal violet assay. It is filed as cell-based. The following applies: coated surfaces incubated with S. aureus for 72 hours. The procedure:
100 μL of freshly prepared coating solution containing 10 mM DOPATet and 2500 U/mL tyrosinase in PBS was added to the wells of a 96-well plate and incubated at room temperature for 6 hours. […] As described elsewhere herein, S. aureus was grown overnight in TSB, then diluted 1:100 in TSB containing 3% glucose. 300 μL of the dilute bacteria was added to the coated well plate, which was then incubated at 37° C. for 72 hours. After incubation the media was decanted, and the plate was air dried for 5 minutes. 200 μL of 0.9% NaCl in sterile water was gently added to the wells, then decanted, and air dried for 5 minutes. The wells were washed twice more with 0.9% NaCl, and after the final drying, 200 μL methanol was added to each well. The plate was left at room temperature for 15 minutes, then the methanol was decanted and the plate air dried for 5 minutes. 100 μL of 3% crystal violet in sterile water was added to the wells and incubated at room temperature for 20 minutes. The dye was decanted, and the plate air dried. The wells were washed three times with 0.9% NaCl as above. After the final air drying, 150 μL of methanol was added to the wells, and mixed to allow for dissolution of the crystal violet. The dye solution was then decanted and diluted 1:10 in methanol, then the absorbance at 590 nm was recorded.

Data set [7] relates to S. aureus biofilm. In words: Biofilm microscopy (PI/SYTO 9, CLSM). The note with it: coated microscopy dishes, PI/SYTO 9 staining. Type of data set: cell-based. The procedure: 200 μL of freshly prepared coating solution containing 10 mM DOPA-Tet and 2500 U/mL tyrosinase in PBS was added to a glass bottom culture dush. The dish was incubated at room temperature for 6 hours, during which a coating was formed. […] S. aureus was grown overnight in TSB, then diluted 1:100 in TSB containing 3% glucose. 300 μL of the dilute bacteria was added to the microscope dishes, which were then placed in a 37° C. incubator. The samples were incubated for 72 hours, with the media being topped up every day to account for evaporation. The media was decanted and then the dishes were washed with 200 μL of 0.9% NaCl, followed by a 1-hour incubation at room temperature with 250 μL of TSB containing Syto9 (10 μM) and PI (10 μM). The dyes were then decanted and the samples were washed again with saline. Finally, 150 μL of HBSS was added, and the dishes were imaged on a Leica SP8 confocal microscope.

The test system of data set [8] is S. aureus. Kind of data set: Minimum Inhibitory Concentration (MIC) assay. It is filed as cell-based. The following applies: Staphylococcus aureus; in solution, 37° C., 18 to 24 h, n=3. The protocol:
A glycerol stock of S. aureus was struck on a tryptic soy agar plate and incubated overnight at 37° C. Single colonies were then picked and diluted into tryptic soy broth (TSB) and left to grow overnight. Next, the culture was diluted approximately 40-fold into fresh TSB and grown to mid-log phase (OD600=0.4 to 0.8). 5 mg/mL stock solutions of Vancomycin-TCO and vancomycin in DMSO were serially diluted two-fold with TBS across the wells of a non-treated 96-well plate, with concentrations ranging from 0.0625 to 128 μg/mL. The mid-log phase cultures were diluted to a final concentration of 5×10^5 colony forming units (CFU)/mL in TSB then 50 μL was added to each antimicrobial-containing well, giving a final antimicrobial concentration range of 0.031 to 64 μg/mL. All the plates were covered and incubated at 37° C. for 18 to 24 h. The MIC was defined as the lowest compound concentration at which no bacterial growth was visible (n=3).

The nature of data set [9]: Michaelis-Menten kinetics of native and TCO-conjugated ALP (UV-Vis, 405 nm). It is filed as biochemical. The note with it: 5 nM enzyme, p-NPP in TBS 8.5, room temperature. The protocol: Both assays produce an increase in absorbance at 405 nm, the evolution of which at room temperature was measured on a microplate reader (SpectraMax iD3) over 1 hour. […] These trials were omitted from data analysis. Velocities were estimated by linear regression, and Michaelis-Menten parameters were calculated using both Lineweaver-Burk plots and non-linear least squares regression. R-squared values for all regressions were above 0.95 with the vast majority being above 0.98.

A short description of data set [10]: Stability of grafted enzymes after repeated use. Type of data set: biochemical. The note with it: enzymes grafted on DOPA-Tet coated tubes, repeated substrate and buffer incubations with washes. The protocol: Eight 0.2 mL microcentrifuge tubes were coated with 50 μL of 10 mM DOPA-Tet. The tubes were washed thoroughly with TBS (pH 7.5). Three tubes each were grafted with 50 μL of either 0.1 mM ALP-TCO or 0.1 mM GOx-TCO and 0.1 mM HRP-TCO. The two remaining coated tubes were not grafted with any enzymes. The tubes were washed thoroughly with TBS (pH 7.5). 25 μL of 1 mg/mL p-NPP in TBS (pH 8.5) was added to the ALP-grafted tubes and 25 μL 1 mM ABTS and 1 mM D-glucose in PBS (pH 7.4) was added to the GOX/HRP grafted tubes. Each substrate solution was also added to one of the tubes that was not grafted (for controls). […] Absorbance at 405 nm was measured on a spectrophotometer (Thermo Scientific NanoDropOneC). All tubes were then thoroughly washed with TBS (pH 7.5). Then TBS (pH 8.5) was added to the ALP-grafted tubes and PBS (pH 7.4) was added to the GOX/HRP grafted tubes. Each buffer solution was also added to one of the tubes that was not grafted. […] The buffer solutions were then removed from the tubes. This process of incubating with substrate and then buffer solutions was repeated for all tubes 9 more times, for a total of 10 cycles.

Values after ≈ are worked out from the molar mass of the structure shown. Like-named read-outs stand apart in the source and are kept apart here.

Take `Cc1nnc(-c2ccc(OCCOCCOCCOCCNC(=O)C(N)Cc3ccc(O)c(O)c3)cc2)nn1` (racemic) [DOPA-Tet, (±)-2-amino-3-(3,4-dihydroxyphenyl)-N-(2-(2-(2-(2-(4-(6-methyl-1,2,4,5-tetrazin-3-yl)phenoxy)ethoxy)ethoxy)ethoxy)ethyl)propanamide]: the “activity (absorbance at 405 nm)” value in [1] was 0.05 OD; in data set [2], −0.07 OD. Moreover, the coating stability entry in data set [3] (10% DMSO in PBS) is “slightly solubilized”; in [3] (buffered from pH 4.5 to 8.5), “No degradation of the coating was observed”; in data set [3] (pH 9.5), “delamination and degradation of the coating were observed”. Also, the “ALP activity on p-NPP after incubation in human serum” value in data set [4] is recorded as “did not show any visually detectable activity”. Further, in data set [5], the “growth of S. aureus (planktonic)” value was “not antimicrobial”. In addition, the “biofilm formation (crystal violet, absorbance at 590 nm)” value in data set [6] was “successfully inhibited biofilm formation”. The “biofilm formation (CLSM)” value in data set [7] was “no biofilm was observed”.

Usually MIC stands for the lowest concentration that inhibits growth of the organism. Low values mean a more susceptible organism, high ones a less susceptible organism. `CN[C@H](CC(C)C)C(=O)N[C@H]1C(=O)N[C@@H](CC(N)=O)C(=O)N[C@H]2C(=O)N[C@H]3C(=O)N[C@H](C(=O)N[C@H](C(=O)NCCOCCOCCOCCOCCOCCOCCOCCOCCNC(=O)OC4CC/C=C/CCC4)c4cc(O)cc(O)c4-c4cc3ccc4O)[C@H](O)c3ccc(c(Cl)c3)Oc3cc2cc(c3O[C@@H]2O[C@H](CO)[C@@H](O)[C@H](O)[C@H]2O[C@H]2C[C@](C)(N)[C@H](O)[C@H](C)O2)Oc2ccc(cc2Cl)[C@H]1O` (some centres unmarked) [vancomycin-TCO]: the lowest concentration to inhibit growth in data set [8] (MIC) was 16 µg/mL (≈ 8.02 µM).

Broadly, the Km is the substrate concentration at which the rate is half of its maximum. Consider “ALP: alkaline phosphatase, native enzyme (SEQ ID NO:2)”, for which the Km in data set [9] (Lineweaver-Burk plots, read-out: Km by LB) came to 281 µM; in [9] (non-linear least squares regression, read-out: Km by nls) it was 207 µM. Also, the “activity (absorbance at 405 nm)” value in data set [1] came to 1.66 OD. Moreover, the “loss of activity on repeated use (absorbance at 405 nm)” value in data set [10] is recorded as “little loss of activity over 10 cycles”.

Source of the values: US12454550B2, “Compositions and methods for bioorthogonal surface coating” (Rutgers, The State University of New Jersey, priority 2021, dated 2025).
